From PMC9603750, “Chalcone-Acridine Hybrid Suppresses Melanoma Cell Progression via G2/M Cell Cycle Arrest, DNA Damage, Apoptosis, and Modulation of MAP Kinases Activity” (International Journal of Molecular Sciences, 2022)

What was measured:
Assay in all cases: MTT assay (metabolic activity)
MCF-10A = format: cell-based; conditions: Homo sapiens; MCF-10A noncancer cell line, 72 h incubation
Experimental: (§1) Cell lines A2058 (human melanoma lymph node metastasis, cat. 91100402) from ECACC (Public Health England, Salisbury, UK) and BLM (human melanoma lung metastasis a gift from prof. K. Smetana, Institute of Anatomy, Charles University in Prague) were cultured in a medium consisting of high glucose Dulbecco’s Modified Eagle’s Medium (DMEM) and sodium pyruvate (GE Healthcare, Piscataway, NJ, USA). The growth medium was supplemented with a 10% fetal bovine serum (FBS) and antibiotic/antimycotic solution 1 × HyClone™ (GE Healthcare, Chicago, IL, USA). The MCF-10A (human mammary epithelial cells) cell line was cultured in a medium consisting of high glucose Dulbecco’s Modified Eagle’s Medium F12 (DMEM/F12) (Biosera, Kansas City, MO, USA). The growth medium was supplemented with a 10% FBS, antibiotic/antimycotic solution 1 × HyClone™ (GE Healthcare, Chicago, IL, USA), epidermal growth factor (EGF) (20 ng/mL final), hydrocortisone (0.5 μg/mL final) and insulin (10 μg/mL final) (Sigma-Aldrich Chemie, Steinheim, Germany). Cells were cultured in humidified air at 37 °C with atmosphere containing 5% CO2.
(§2) The half-maximal inhibitory concentration values (IC50) and metabolism inhibition of tested synthetic chalcone derivatives were determined by MTT (3-(4,5-di-methylthiazol-2-yl)2,5-diphenyltetrazolium bromide) colorimetric assay (Sigma-Aldrich Chemie, Steinheim, Germany). Tested cell lines were seeded at a density of 5 × 10^3 cells/well in 96-well culture plates. After 24 h, the tested chalcones in concentrations of 100, 50 and 10 μmol/L were added and incubation proceeded for the next 72 h. In the next step, 10 μL of MTT (5 mg/mL) was added to each well containing cells and incubated for another 4 h at 37 °C during which MTT was metabolized to insoluble formazan in cells. After 4 h, 100 μL of a 10% sodium dodecyl sulphate (SDS) was added to each well and another 24 h were allowed for the formazan crystals to dissolve. The metabolic activity of cells was evaluated by measuring the absorbance at wavelength 540 nm using the automated Cytation™ 3 Cell Imaging Multi-Mode Reader (Biotek, Winooski, VT, USA). Three independent analyses were performed.

BLM = format: cell-based, human; conditions: Homo sapiens; BLM, 72 h incubation
Experimental: as §1, §2

A2058 = format: cell-based, human; conditions: Homo sapiens; A2058, 72 h incubation
Experimental: as §1, §2

Structure (SMILES)	IC50 (MCF-10A)	IC50 (BLM)	IC50 (A2058)
CC(C)Oc1[nH]c2ccccc2c1/C=C/C(=O)c1ccccc1F [ZKCH-11E, (2E)-1-(2-fluorophenyl)-3-[2-(propan-2-yloxy)-1H-indol-3-yl]prop-2-en-1-one]	44.7 ± 4.96 µM	33.8 ± 2.14 µM	37.3 ± 2.28 µM
O=C(/C=C/c1c[nH]c2ccccc12)c1ccccc1F [ZKCH-11H, (2E)-1-(2-fluorophenyl)-3-(1H-indol-3-yl)prop-2-en-1-one]	60.7 ± 3.09 µM	40.9 ± 2.62 µM	42.4 ± 2.98 µM
CCOc1[nH]c2ccccc2c1/C=C/C(=O)c1ccccc1F [ZKCH-11C, (2E)-3-(2-ethoxy-1H-indol-3-yl)-1-(2-fluorophenyl)prop-2-en-1-one]	> 100 µM	38.55 ± 0.06 µM	41.6 ± 0.73 µM
COn1cc(/C=C/C(=O)c2ccccc2F)c2ccccc21 [ZKCH-11A, (2E)-1-(2-fluorophenyl)-3-(1-methoxy-1H-indol-3-yl)prop-2-en-1-one]	85 ± 2.19 µM	35.3 ± 6.1 µM	31.9 ± 0.95 µM
CCCCOc1[nH]c2ccccc2c1/C=C/C(=O)c1ccccc1F [ZKCH-11F, (2E)-3-(2-butoxy-1H-indol-3-yl)-1-(2-fluorophenyl)prop-2-en-1-one]	> 100 µM	47.7 ± 1.49 µM	45.8 ± 2.54 µM
CC(C)COc1[nH]c2ccccc2c1/C=C/C(=O)c1ccccc1F [ZKCH-11G, (2E)-1-(2-fluorophenyl)-3-[2-(2-methylpropoxy)-1H-indol-3-yl]prop-2-en-1-one]	51.3 ± 3.94 µM	39.5 ± 3.9 µM	40 ± 1.37 µM
